# Measurements reported in the Bradley open melting point set (2014).
row,SMILES,melting point [°C]
1,C(=N\c1ccccc1Nc1ccccc1/N=C/c1ccccc1)/c1ccccc1,103
2,CCCCCCSc1cc(N(NC(=O)OC(C)(C)C)C(=O)OC(C)(C)C)cc(SCCCCCC)c1SCCCCCC,74.5
3,C/C=C/C1Nn2c(nnc2-c2cccnc2)S1 (configuration not stated),121
4,O=C1CCCc2cc3c(c(CSc4ccccc4)c21)-c1ccccc1OC3,91
5,C=C1/C(=N/Nc2cc(Cl)c(Cl)cc2Cl)C(=O)N(C)C(=O)N1C,244
6,C=CC1=C(/C=N/Nc2ccc([N+](=O)[O-])cc2[N+](=O)[O-])CCCC1,153
7,CC(=O)/C(=N/Nc1cc(Cl)ccc1Cl)C(=O)C(F)(F)F,84
8,CC(=O)/N=c1\sc(C(C)=O)nn1-c1ccc(F)cc1,158
9,CC(=O)N(C(C)=O)c1cc(/C=C/C(=O)O)ccc1/C=C/C(=O)O,313
10,CC(=O)Nc1ccc(/N=N/c2ccc(/N=N/c3ccc(/N=N/c4ccc(NC(C)=O)cc4)cc3)cc2)cc1,247
11,CC(=O)Oc1c(-c2ccccc2)n(C(C)=O)c2cc([N+](=O)[O-])c(/C(Cl)=C/c3ccccc3)cc12,58
12,CC(C)CCCC(C)C1CC[C@@]2(C)[C@@]34CCC5[C@H](C)[C@@H](O)CC[C@]5(C)[C@]3(CC[C@]12C)O4 (some centres not stated),162
13,Cc1c(C)c2c(c(C)c1O)CC[C@@](C)(CCC[C@H](C)CCC[C@H](C)CCCC(C)C)O2,2
14,CC1(C)C(=O)OC2=C(CCC/C2=C\c2ccccc2)C1c1ccccc1 (configuration not stated),156
15,CC12CCC(/C(=C/N(O)c3ccccc3)C1=O)C2(C)C (configuration not stated),107
16,CC1=NN(CN2CCCCC2)C(=O)/C1=N\Nc1ccc(Cl)cc1Cl,123
17,CC1CCC(C(C)C)C(OC(=O)/C(=C/c2ccccc2)Cc2ccccc2)C1 (configuration not stated),65
18,CC1CCC(C(C)C)C(OC(=O)C(=O)/C=C/c2ccccc2)C1 (configuration not stated),46
19,CCN(Cc1ccc(Cl)nc1)/C(=C/[N+](=O)[O-])NC,72
20,CCOC(=O)/C(=N/Nc1cc(Cl)ccc1Cl)C(=O)C(F)(F)F,147
21,CCOC(=O)/C(=N/Nc1ccc(Cl)cc1)C(=O)C(F)(F)F,76
22,CCOC(=O)/C(=N/Nc1ccccc1[N+](=O)[O-])C(C)=O,74
23,CCOC1Oc2ccc(C)cc2C(=O)/C1=C\Nc1nc2ccc(Cl)cc2s1 (configuration not stated),147
24,Cc1c(N(C)C)c(=O)n(-c2ccccc2)n1C,108
25,CN(C)c1ccc(/C=C(/C#N)c2nc(-c3ccc(Cl)cc3)cs2)cc1,134

row,SMILES,melting point [°C]
1,CN(C)c1ccc(C=C/C(=N\Nc2ccccc2)c2ccccc2)cc1,128
2,COC1=C(OC)/C(=C/C2CCC=CC23OC(=O)C(OC)=C3OC)OC1=O (configuration not stated),119
3,COc1cc(/C=C/C(=O)NCCc2ccc(OCc3ccccc3)c(OC)c2)ccc1OCc1ccccc1,164
4,COc1cc(C)c2c(c1)CC/C(=C\c1ccccc1)C2=O,97
5,COc1ccc(-c2csc(/C(C#N)=N/Nc3cc(C)ccc3C)n2)cc1,156
6,COc1ccc(-c2csc(/C(C#N)=N/Nc3ccc(C)cc3)n2)cc1,152
7,COc1ccc(/C=C(\Oc2ccc(Cl)cc2)c2nc3ccccc3s2)cc1,138
8,COc1ccc(/C=C2\N=C(c3ccccc3)OC2=O)cc1OC,133
9,COc1ccc(/N=N/c2sc(CC#N)nc2C)cc1,159
10,COc1ccc(N/N=C(\C#N)c2nc(-c3ccccc3)cs2)cc1,151
11,COc1ccc(N/N=C2/C(=O)N(CO)N=C2C(F)(F)F)cc1,143
12,COc1ccccc1-c1ccc(/C=C/C(=O)c2ccco2)o1,97
13,Cc1ccc(/C=C(\Oc2cccc(C)c2)c2nc3ccccc3s2)cc1,138
14,Cc1ccc(C(=O)c2nn(-c3ccccc3)/c(=N\N=C\c3ccco3)s2)cc1,114
15,Cc1cccc(N/N=C(\C#N)c2nc(-c3ccc(Cl)cc3)cs2)c1,158
16,Cc1nc(/C(C#N)=C\c2ccc(Cl)cc2Cl)sc1/N=N/c1ccc(F)cc1,139
17,ClC1=C(Cl)[C@]2(Cl)[C@@H]3[C@@H]4C[C@@H]([C@H]5O[C@@H]45)[C@@H]3[C@@]1(Cl)C2(Cl)Cl,176
18,O=C(O)C1C(C(=O)O)C2(Cl)C(Cl)=C(Cl)C1(Cl)C2(Cl)Cl (configuration not stated),240
19,ClC1=C(Cl)[C@]2(Cl)C3C(Cl)C(Cl)CC3[C@@]1(Cl)C2(Cl)Cl (some centres not stated),106
20,CC(=O)N1CCN(c2ccc(OCC3COC(Cn4ccnc4)(c4ccc(Cl)cc4Cl)O3)cc2)CC1 (configuration not stated),146
21,O=c1ncn2nc(Sc3ccccc3)ccc2c1-c1c(Cl)cccc1Cl,264
22,Cn1c(/C(C#N)=C/c2ccc(F)cc2)nc2ccccc21,134
23,Cn1c(/C(C#N)=N/Nc2ccc(Cl)cc2Cl)nc2ccccc21,161
24,O=C(Nc1ccccn1)C(C(F)(F)F)C(F)(F)F,109
25,CCCCOc1ccc(NC(=O)C(F)(F)C(F)(F)C(F)(F)C(F)(F)C(F)(F)C(F)(F)C(F)(F)C(F)(F)F)cc1,137

row,SMILES,melting point [°C]
1,N#C/C(=C\c1ccc(Cl)cc1)c1nc(-c2cccc3ccccc23)cs1,131
2,C(=NNc1ccccc1)C(=NNc1ccccc1)c1cccc(C(C=NNc2ccccc2)=NNc2ccccc2)c1,165
3,NS(=O)(=O)c1cc2c(cc1Cl)NCNS2(=O)=O,274
4,Nc1ccc(/N=N/c2ccc(/N=N/c3ccc(/N=N/c4ccc(/N=N/c5ccc(N)cc5)cc4)cc3)cc2)cc1,292
5,COc1ccc(C=C2C3=C(CCCC3)OC3=C2CCCC3)cc1,124
6,CCCOC1CCC2C3CC=C4CC5(CCC4(C)C3CCC12C)OCCO5 (configuration not stated),209
7,COc1ccc(C(=O)Nc2ccc(-c3ccc4nn(-c5ccccc5)nc4c3)cc2)cc1,106
8,CC1NC(C(=O)O)CC2=C3C=CCC=C3N=C21 (configuration not stated),244
9,CCn1cc(C(=O)O)c(=O)c2ccc(C)nc21,230
10,Cc1cc(C2(c3cc(C)c(O)c(CN(CC(=O)O)CC(=O)O)c3)OS(=O)(=O)c3ccccc32)cc(CN(CC(=O)O)CC(=O)O)c1O,210
11,CC[C@@H](C(=O)[C@@H](C)[C@@H](O)[C@H](C)[C@@H]1O[C@@H]([C@@H](CC)C(=O)O)CC[C@@H]1C)[C@H]1O[C@]2(C=C[C@@H](O)[C@]3(CC[C@@](C)([C@H]4CC[C@](O)(CC)[C@H](C)O4)O3)O2)[C@H](C)C[C@@H]1C,113
12,CC(C)(C)OC(=O)NCCCC[C@H](NC(=O)OCC1c2ccccc2-c2ccccc21)C(=O)O,132
13,COC(=O)c1cc2ccccc2c(OC(=O)c2ccccc2C)c1C(=O)OC,139
14,CC1CCC(C(C)C)C(OC(=O)C2(C)CCC(C)C2(C)C)C1 (configuration not stated),50
15,CC(=O)OC1CCC2(C)C3CCC4=C(CCC4(C)C(C)OC(C)=O)C3CCC2(C)C1 (configuration not stated),118
16,CC(=O)OC1COC(C#N)C(OC(C)=O)C1OC(C)=O (configuration not stated),134
17,Cc1ccc(C(=O)OC2CC(C#N)OC2OC(=O)c2ccc(C)cc2)cc1 (configuration not stated),111
18,CC(=O)OCC1OC(C#N)=CC(OC(C)=O)C1OC(C)=O (configuration not stated),114
19,O=C(OC[C@H]1O[C@@H](OC(=O)c2cc(O)c(O)c(OC(=O)c3cc(O)c(O)c(O)c3)c2)[C@H](OC(=O)c2cc(O)c(O)c(OC(=O)c3cc(O)c(O)c(O)c3)c2)[C@@H](OC(=O)c2cc(O)c(O)c(OC(=O)c3cc(O)c(O)c(O)c3)c2)[C@@H]1OC(=O)c1cc(O)c(O)c(OC(=O)c2cc(O)c(O)c(O)c2)c1)c1cc(O)c(O)c(OC(=O)c2cc(O)c(O)c(O)c2)c1,210
20,O=C(c1ccc(Cl)cc1)c1nn(-c2ccccc2)/c(=N\N=C\c2ccc(F)cc2)s1,151
21,O=C1/C(=N\Nc2cccc(F)c2)C(C(F)(F)F)=NN1c1ccccc1,106
22,CC(C)C1=C(O)C(=O)C2=C(C1=O)C(O)CC1C(C)(C)CCCC21C (configuration not stated),174
23,O=C1C2CC3=C(CC=CC3)CC2C(=O)C2CC3=C(CC=CC3)CC12 (configuration not stated),227
24,CC(=O)OC1CCCC2=CC(=O)CCC21C (configuration not stated),90
25,CC12CCC(=O)CC1CCC1C2CCC2(C)C1CCC21OCCO1 (configuration not stated),188

row,SMILES,melting point [°C]
1,CC1=C(C(=O)OCc2ccccc2)C(c2ccc3c(c2)OCO3)NC(=O)N1 (configuration not stated),159
2,O=C1OC(=O)C23Cc4ccccc4CC12Cc1ccccc1C3 (configuration not stated),269
3,COC(=O)C12C=CC(CC1)C1C(=O)OC(=O)C12 (configuration not stated),117
4,CC12C=CC(O1)C1C(=O)OC(=O)C12 (configuration not stated),70
5,O=C1OC(c2ccccc2)=N/C1=C/c1ccc(-c2ccccc2Br)o1,160
6,COc1ccc2c(c1)CC1(CCC(O)(c3ccc(C(C)(C)C)cc3)CC1)C2=O (configuration not stated),166
7,C[C@@H]1C[C@@H]([C@H](O)CC2CC(=O)NC(=O)C2)C(=O)[C@@H](C)C1,120
8,O=C(O)c1cc(/N=N/c2ccc(S(=O)(=O)Nc3ccccn3)cc2)ccc1O,249
9,O=[N+]([O-])c1ccc(N/N=C/C2=C(/C=C/c3ccccc3)CCCC2)c([N+](=O)[O-])c1,163
10,O=[N+]([O-])c1ccc(N/N=C2/Cc3c2ccc2ccccc32)c([N+](=O)[O-])c1,275
11,CCCCCCCCCCCCCCCCCCN1c2ccccc2C(C)(C)C12C=Cc1cc([N+](=O)[O-])ccc1O2 (configuration not stated),81
12,CC12CCC(O)CC1CC1(OCCO1)C1C2CCC2(C)C1CCC21OCCO1 (configuration not stated),101
13,CC(C)CCCC(C)C1CCC2C3CC(O)C4(O)CC(O)CCC4(C)C3CCC12C (configuration not stated),238
14,CC(CCc1oc2ccc(C)cc2c1-c1ccc(C)o1)=NO,104
15,COc1cc(/C=C/C(=O)CC(=O)/C=C/c2ccc(O)c(OC)c2)ccc1O,180
16,C[C@H](Cc1ccc(O)c(O)c1)[C@@H](C)Cc1ccc(O)c(O)c1,180
17,CCSC(SCC)=C1CCCC(=C(SCC)SCC)C1=C(C#N)C#N,101
18,CCOC(=O)C=C1SC(N2CCCCC2)C(=O)N1CC (configuration not stated),86
19,CN(C)c1ccc(C2Nn3c(COc4ccccc4)nnc3S2)cc1 (configuration not stated),144
20,COc1ccc(NC(=S)c2cc(C(C)(C)C)c(O)c(C(C)(C)C)c2)cc1,129
21,CCOC(=O)C12C(c3ccccc3O[P+]1([O-])OCC)C1(C(=O)OCC)C2c2ccccc2O[P+]1([O-])OCC (configuration not stated),218
22,FC(F)(F)c1cc(-c2cccs2)nc2cc(-c3cccs3)nn12,159
